Results: BindingDB's records for patent US11814384 (Kinnate Biopharma, 2023)
“Also recorded” adds a separate entry of the source.

target: Serine/threonine-protein kinase B-raf (Homo sapiens, UniProt P15056); experiment: Enzymatic BRAF Kinase Activity Assay
Protocol: Small molecule inhibition of the BRAF kinases was measured using ADP-Glo assay. In the assay, […], resulting in luciferase reaction and luminescent readout with light generated proportional to the relative kinase activity. Compounds diluted in DMSO were used in 10-point, 3-fold dose curve for both assays. Final concentrations of 6 nM BRAF (CarnaBio, Cat. 09-122) or 3 nM RAF1 (CarnaBio, Cat. 09-125) and 30 nM MEK1 substrate (Millipore, Cat. 14-420) were incubated with 3 µM ATP, 10 mM MgCl2, 0.003% Brij-35, 2 mM DTT, 0.05% BSA, 1 mM EGTA, and 50 mM HEPES for 90 minutes at room temp prior to addition of ADP-Glo reagent (Promega, Cat. V9102) for 40 minutes, and detection reagent for 45 minutes. Luminescence was read on an Envision plate reader (PerkinElmer) and percent remaining activity was used to calculate IC50 using a four-parameter fit model using Dotmatics Knowledge Solutions Studies curve fitting (Dotmatics, Bishops Stortford, UK, CM23).

Serine/threonine-protein kinase B-raf, sequence (P15056 whole entry): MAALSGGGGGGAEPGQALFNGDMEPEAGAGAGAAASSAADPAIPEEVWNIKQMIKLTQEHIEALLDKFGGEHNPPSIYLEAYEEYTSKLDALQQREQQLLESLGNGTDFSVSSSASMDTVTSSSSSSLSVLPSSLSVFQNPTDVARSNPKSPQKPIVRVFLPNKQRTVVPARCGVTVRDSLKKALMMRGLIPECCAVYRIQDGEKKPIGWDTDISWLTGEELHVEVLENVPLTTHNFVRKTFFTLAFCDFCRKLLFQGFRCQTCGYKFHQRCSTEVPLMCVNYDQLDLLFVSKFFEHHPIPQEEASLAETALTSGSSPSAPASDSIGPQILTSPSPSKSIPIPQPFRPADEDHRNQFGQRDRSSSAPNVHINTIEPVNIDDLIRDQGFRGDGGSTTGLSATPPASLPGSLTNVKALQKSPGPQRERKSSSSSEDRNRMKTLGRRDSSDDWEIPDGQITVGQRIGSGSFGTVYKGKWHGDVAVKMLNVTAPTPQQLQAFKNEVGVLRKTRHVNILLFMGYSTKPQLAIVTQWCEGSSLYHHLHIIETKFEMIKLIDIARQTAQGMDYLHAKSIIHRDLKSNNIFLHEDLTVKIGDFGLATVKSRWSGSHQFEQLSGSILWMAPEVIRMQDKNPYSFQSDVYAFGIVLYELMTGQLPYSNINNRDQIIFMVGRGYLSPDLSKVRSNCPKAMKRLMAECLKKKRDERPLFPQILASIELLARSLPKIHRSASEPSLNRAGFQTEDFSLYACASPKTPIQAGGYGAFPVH

Structure (SMILES) | IC50
CC(C)(C)n1ncc(C(=O)Nc2ccc(Cl)c(-c3cc(N4CCOCC4)c4nccn4c3)c2)c1F [US11814384, Example 110] | in the range around 5.5 nM
Cc1cc(F)c(NC(=O)c2ccn(C(C)(C)C)c2)cc1-c1cc(N2CCOCC2)c2nccn2c1 [US11814384, Example 43] | in the range around 5.5 nM
Cc1cc(F)c(NC(=O)c2ccnc(N3CCCC3)c2)cc1-c1cc(N2CCOCC2)c2nccn2c1 [US11814384, Example 166] | in the range around 5.5 nM
O=C(Nc1cc(-c2cc(N3CCOCC3)c3nccn3c2)c(F)cc1F)N1CC[C@@H](CC(F)(F)F)C1 [US11814384, Example 99] | in the range around 55 nM
Cc1cc(F)c(NC(=O)N2CCC(C3(C(F)(F)F)CC3)C2)cc1-c1cc(N2CCOCC2)c2nccn2c1 (configuration not stated) [US11814384, Example 60] | in the range around 5.5 nM; also recorded: in the range around 55 nM
Cc1ccc(NC(=O)c2cnn(C(C)(C)C)c2F)cc1-c1cc(N2CCOCC2)c2nccn2c1 [US11814384, Example 73] | in the range around 5.5 nM
Cc1cc(F)c(NC(=O)N2CC[C@@H](CC(F)(F)F)C2)cc1-c1cc(N2CCOCC2)c2nn(C)cc2c1 [US11814384, Example 1] | in the range around 5.5 nM
Cc1cc(F)c(NC(=O)N2CC=C(C3(C)CC3)C2)cc1-c1cc(N2CCOCC2)c2nccn2c1 [US11814384, Example 69] | in the range around 5.5 nM
Cc1cc(F)c(NC(=O)c2cnn(C(C)(C)C(F)(F)F)c2)cc1-c1cc(N2CCOCC2)c2nccn2c1 [US11814384, Example 136] | in the range around 5.5 nM
Cc1cc(F)c(NC(=O)N2CCC(C(F)(F)C(F)(F)F)C2)cc1-c1cc(N2CCOCC2)c2nccn2c1 (configuration not stated) [US11814384, Example 23] | 1 to 10 nM
Cc1ccc(NC(=O)c2ccnc(C(F)(F)F)c2)cc1-c1cc(N2CCOCC2)c2nc3c(n2c1)CC(O)CC3 (configuration not stated) [US11814384, Example 34] | 1 to 10 nM
Cc1cc(F)c(NC(=O)c2cnn(C(C)(C)C)c2F)cc1-c1cc(N2CC3CCC(C2)O3)c2nccn2c1 [US11814384, Example 180] | in the range around 5.5 nM
Cc1cc(F)c(NC(=O)c2cnn(C(C)(C)C)c2F)cc1-c1cc(N2CCOCC2)c2ncc(F)n2c1 [US11814384, Example 111] | in the range around 55 nM
Cc1cc(F)c(NC(=O)N2CCC(C(C)C(F)F)C2)cc1-c1cc(N2CCOCC2)c2nccn2c1 (configuration not stated) [US11814384, Example 87] | in the range around 5.5 nM; also recorded: in the range around 55 nM
Cc1cc(F)c(NC(=O)c2cnn(C(C)(C)C)n2)cc1-c1cc(N2CCOCC2)c2nccn2c1 [US11814384, Example 186] | in the range around 5.5 nM
Cc1cc(F)c(C(=O)Nc2cnn(C(C)(C)C)c2F)cc1-c1cc(N2CCOCC2)n2nc(C3CC3)nc2c1 [US11814384, Example 307] | in the range around 5.5 nM
Cc1cc(F)c(NC(=O)c2cncc(C(F)(F)F)c2)cc1-c1cc(N2CCOCC2)c2nccn2c1 [US11814384, Example 70] | in the range around 5.5 nM
Cc1cc(F)c(C(=O)Nc2cnn(C(C)(C)C)c2F)cc1-c1cc(N2CCOCC2)c2nc(N(C)C)nn2c1 [US11814384, Example 309] | in the range around 5.5 nM
Cc1cc(F)c(NC(=O)c2cnn(C(C)(C)C)c2F)cc1-c1cc(N2CCOCC2)c2nc(C)c(F)n2c1 [US11814384, Example 273] | in the range around 5.5 nM
Cc1ccc(NC(=O)c2cnn(C(C)(C)C)c2F)cc1-c1cc(N2CCOCC2)c2nc(C)c(F)n2c1 [US11814384, Example 274] | in the range around 5.5 nM
CCc1nc2cc(-c3cc(C(=O)Nc4cnn(C(C)(C)C)c4F)c(F)cc3C)cc(N3CCOCC3)n2n1 [US11814384, Example 306] | in the range around 5.5 nM

Further lines, results first:

IC50 | Structure (SMILES)
in the range around 5.5 nM | Cc1cc(F)c(NC(=O)c2cnc(C(C)(C)C)o2)cc1-c1cc(N2CCOCC2)c2nccn2c1 [US11814384, Example 183]
in the range around 55 nM | Cc1ccc(NC(=O)c2cc(C(C)(C)C)ncc2F)cc1-c1cc(N2CCOCC2)c2nccn2c1 [US11814384, Example 95]
in the range around 5.5 nM | Cc1cc(F)c(NC(=O)N2CC[C@@H](CC(F)(F)F)C2)cc1-c1cc(N2CCOCC2)c2nn(C)c(C)c2c1 [US11814384, Example 16]
in the range around 5.5 nM | CCc1nc2cc(-c3cc(C(=O)Nc4cn(C(C)(C)C)nc4F)c(F)cc3C)cc(N3CCOCC3)n2n1 [US11814384, Example 76]
in the range around 55 nM | Cc1cc(F)c(NC(=O)c2cnn(C(C)(C)C)c2F)cc1-c1cc(N2CCOCC2)c2nnnn2c1 [US11814384, Example 220]
in the range around 5.5 nM | Cc1cc(F)c(NC(=O)c2cnc(C(C)(C)C)o2)cc1-c1cc(N2CCOCC2)n2nc(C3CC3)nc2c1 [US11814384, Example 304]
in the range around 5.5 nM | Cc1cc(F)c(NC(=O)c2cn(C(C)(C)C)nn2)cc1-c1cc(N2CCOCC2)c2nccn2c1 [US11814384, Example 86]
in the range around 5.5 nM | Cc1nc2c(N3CCOCC3)cc(-c3cc(NC(=O)c4cnn(C(C)(C)C)n4)c(F)cc3C)cn2n1 [US11814384, Example 303]
in the range around 55 nM | Cc1nc2cc(-c3cc(NC(=O)c4coc(C(C)(C)C)n4)c(F)cc3C)cc(N3CCOCC3)n2n1 [US11814384, Example 292]
in the range around 5.5 nM | Cc1cc(F)c(NC(=O)c2ccnc(C(C)C(F)F)c2)cc1-c1cc(N2CCOCC2)c2nccn2c1 (configuration not stated) [US11814384, Example 113]
in the range around 55 nM | Cc1cc(F)c(C(=O)Nc2cccc(C(C)(C)C)c2)cc1-c1cc(N2CCOCC2)c2nccn2c1 [US11814384, Example 205]
in the range around 5.5 nM | Cc1cn2cc(-c3cc(NC(=O)c4cn(C(C)(C)C)c(F)n4)c(F)cc3C)cc(N3CCOCC3)c2n1 [US11814384, Example 148]
in the range around 5.5 nM | Cc1cc(F)c(NC(=O)c2cnn(C(C)(C)C)c2F)cc1-c1cc(C2=CCOCC2)c2nccn2c1 [US11814384, Example 153]
in the range around 5.5 nM | Cc1c(-c2cc(N3CCOCC3)c3nccn3c2)cc(NC(=O)c2cnn(C(C)(C)C)c2F)c(F)c1F [US11814384, Example 159]
in the range around 5.5 nM | Cc1cc(F)c(NC(=O)c2cnn(C(C)(C)C)c2F)cc1-c1cc(N2CCOCC2)c2ncnn2c1 [US11814384, Example 181]
in the range around 55 nM | Cc1cc(F)c(NC(=O)c2cc(F)n(C3(C)CC3)c2)cc1-c1cc(N2CCOCC2)c2nccn2c1 [US11814384, Example 247]

IC50 | Structure (SMILES)
in the range around 5.5 nM | Cc1cc(F)c(NC(=O)c2cn(C(C)(C)C)c(F)n2)cc1-c1cc(N2CCOCC2)c2nccn2c1 [US11814384, Example 118]
in the range around 5.5 nM | Cc1nc2c(N3CCOCC3)cc(-c3cc(C(=O)Nc4cn(C5(C)CC5)nc4F)c(F)cc3C)cn2n1 [US11814384, Example 310]
in the range around 5.5 nM | Cc1cc(F)c(NC(=O)c2cnn(C(C)(C)C)c2F)cc1-c1cc(N2CCOCC2)n2ncnc2c1 [US11814384, Example 189]
in the range around 55 nM | Cc1nc2c(N3CCOCC3)cc(-c3cc(NC(=O)c4coc(C(C)(C)C)n4)c(F)cc3C)cn2n1 [US11814384, Example 294]
in the range around 5.5 nM | Cc1cc(F)c(NC(=O)c2ccnc(N(C)C(F)(F)F)c2)cc1-c1cc(N2CCOCC2)c2nccn2c1 [US11814384, Example 263]
1 to 10 nM | Cc1cc(F)c(NC(=O)N2CC=C(C(F)(F)C(F)(F)F)C2)cc1-c1cc(N2CCOCC2)c2nccn2c1 [US11814384, Example 22]
in the range around 55 nM | CCc1nc2cc(-c3cc(NC(=O)c4cnc(C(C)(C)C)o4)c(F)cc3C)cc(N3CCOCC3)n2n1 [US11814384, Example 305]
in the range around 5.5 nM | CC(C)(C)n1ncc(C(=O)Nc2cc(-c3cc(N4CCOCC4)c4nccn4c3)c(Cl)cc2F)c1F [US11814384, Example 98]
in the range around 5.5 nM | Cc1cc(F)c(NC(=O)c2cn(C(C)(C)C)cc2F)cc1-c1cc(N2CCOCC2)c2nccn2c1 [US11814384, Example 66]
in the range around 5.5 nM | Cc1cc(F)c(C(=O)Nc2cnn(C(C)(C)C)c2F)cc1-c1cc(N2CCOCC2)c2nc(C(C)C)nn2c1 [US11814384, Example 308]
in the range around 5.5 nM | Cc1cn2cc(-c3cc(C(=O)Nc4cnn(C(C)(C)C)c4F)c(F)cc3C)cc(N3CCOCC3)c2n1 [US11814384, Example 267]
in the range around 5.5 nM | CC(C)(C)n1ncc(C(=O)Nc2cc(-c3cc(N4CCOCC4)c4nccn4c3)c(Cl)cn2)c1F [US11814384, Example 226]
in the range around 5.5 nM | Cc1cc(F)c(NC(=O)c2cnn(C(C)(C)C)c2F)cc1-c1cc(N2CCOCC2)n2nccc2c1 [US11814384, Example 162]
in the range around 5.5 nM | Cc1ccc(NC(=O)c2cnc(C(C)(C)C)o2)cc1-c1cc(N2CCOCC2)c2nccn2c1 [US11814384, Example 185]
in the range around 5.5 nM | Cc1cn2nc(-c3cc(NC(=O)c4cnn(C(C)(C)C)c4F)c(F)cc3C)cc(N3CCOCC3)c2n1 [US11814384, Example 265]
